Our source for the solubility, Ki and IC50 values is patent publication US8937065B2, “Compositions and methods for modulating a kinase” (Clevexel Pharma, priority 2011, dated 2015).

In brackets after ≈: the same amount, converted by molar mass. A value given as a limit tells only on which side of the number the result lay.

The nature of one data set: physchem. Conditions: pH 7.4, aqueous buffer, thermodynamic from solid. As to the method:
The test concentration was 100 μM (0% of DMSO for test compounds, 1% of DMSO for reference compounds). The test system was a 100 mM phosphate buffer (pH 7.4). Sample size was duplicates (n=2) and the bioanalytical method was LC-UV (Agilent-1200). Mobile phase A: H2O-1% TFA, B: MeOH-1% TFA; column Boston Symmetrix ODS-H (2.1×50 mm, 5 μm); LC conditions 0.4 mL/Min.
Assay Procedure • 1. For reference compounds: • Add 8 μL of 10 mM DMSO stock solution into 792 μL of 100 mM phosphate buffer (n=2). Final conc.=100 μM (1% of DMSO)
For test compounds: • Add 8 μL of 10 mM DMSO stock solution into the tubes (n=2). • Dry the samples under nitrogen. • Add 800 μL of 100 mM phosphate buffer into the tubes. Final conc.=100 μM (0% of DMSO) • 2. Sample tubes are shaken for 1 hour (1000 rpm) at room temperature and 37° C. • 3. Samples are centrifuged (10 min-12000 rpm) to precipitate un-dissolved particles. • 4. Supernatants are transferred to new tubes • 5. Concentrations of the supernatants after centrifugation are determined by LC-UV detection.

The target of a further data set is T1, JAK3 (Homo sapiens, UniProt P52333).
T1 construct: purchased Invitrogen, Madison, Wis
T1 sequence (P52333 1-1124): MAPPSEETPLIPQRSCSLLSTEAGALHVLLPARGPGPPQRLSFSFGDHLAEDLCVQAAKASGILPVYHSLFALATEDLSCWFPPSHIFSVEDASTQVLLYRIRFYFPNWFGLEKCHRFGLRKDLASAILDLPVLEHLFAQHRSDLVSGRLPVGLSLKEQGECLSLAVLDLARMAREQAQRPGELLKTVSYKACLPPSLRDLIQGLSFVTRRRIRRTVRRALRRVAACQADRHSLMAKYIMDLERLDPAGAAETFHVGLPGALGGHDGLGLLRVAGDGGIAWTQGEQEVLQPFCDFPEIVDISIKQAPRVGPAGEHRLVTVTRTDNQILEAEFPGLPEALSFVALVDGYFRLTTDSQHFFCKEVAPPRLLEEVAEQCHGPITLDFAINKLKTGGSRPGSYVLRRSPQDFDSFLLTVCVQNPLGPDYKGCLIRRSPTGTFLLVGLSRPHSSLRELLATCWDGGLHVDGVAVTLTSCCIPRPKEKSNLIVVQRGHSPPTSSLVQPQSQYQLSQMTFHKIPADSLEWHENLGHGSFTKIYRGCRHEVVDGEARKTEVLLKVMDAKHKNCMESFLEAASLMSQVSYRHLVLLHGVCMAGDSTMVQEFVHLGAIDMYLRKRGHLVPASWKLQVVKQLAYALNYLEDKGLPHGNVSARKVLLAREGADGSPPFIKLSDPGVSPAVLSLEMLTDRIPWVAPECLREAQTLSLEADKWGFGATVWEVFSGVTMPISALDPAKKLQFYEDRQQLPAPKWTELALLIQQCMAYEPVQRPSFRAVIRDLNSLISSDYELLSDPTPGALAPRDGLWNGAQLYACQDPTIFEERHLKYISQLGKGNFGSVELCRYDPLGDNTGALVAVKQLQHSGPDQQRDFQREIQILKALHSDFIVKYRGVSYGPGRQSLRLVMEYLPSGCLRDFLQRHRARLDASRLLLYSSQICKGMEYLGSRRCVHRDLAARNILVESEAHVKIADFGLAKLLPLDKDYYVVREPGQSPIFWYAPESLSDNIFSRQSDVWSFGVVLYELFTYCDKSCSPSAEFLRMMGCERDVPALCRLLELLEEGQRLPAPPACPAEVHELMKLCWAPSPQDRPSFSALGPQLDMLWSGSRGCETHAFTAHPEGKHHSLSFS
The experiment in a line: JAK3 enzymatic activity assay (Z'-LYTE Biochemical Kinase Assay, 2 hr preincubation at 4° C.). Conditions: cell free, 1% DMSO, read-out: JAK3 activity cell free (2 hr preincubation at (4° C.) Kj). How it is done:
The assays were performed according to manufacturer's protocols, except that prior to the kinase reaction they were pre-incubated for 2 hours at 4° C., in order to be able to assay for time-dependent inhibition.
In addition to the compound, each 10 μL JAK3 kinase reaction contained 0.43-1.89 ng JAK3 and 2 μM peptide substrate in 50 mM HEPES (pH 7.5), 0.01% BRIJ-35, 10 mM MgCl2 and 1 mM EGTA. The kinase reaction was allowed to proceed for 1 hour.

The test system of data set [1] is Interleukin 4/STAT6-STAT6-bla RA1. The experiment in a line: Interleukin 4/STAT6-STAT6-bla RA1 inhibition (IL-4-stimulated STAT6 activity in Ramos cells). It is filed as cell-based. Conditions: Homo sapiens, Ramos; Table 1, 6th column; read-out: Cell based IL4 stimulation IC50. How it is done: The inhibition of Interleukin 4/STAT6-STAT6-bla RA1 (activated by IL-4) by several compounds was determined using the Screening Protocol and Assay Conditions (Invitrogen, Madison, Wis.). The assays were performed according to manufacturer's protocols. Example 4, Cell-line Specific Protocols IL-4-stimulated STAT6 activity in Ramos cells for details.
Mechanism-based inhibition assays using compound 7A (Table 1) were performed using GeneBLAzer® Technology (Invitrogen Corporation), according to manufacturer specifications. […] In this state, excitation of the coumarin results in fluorescence resonance energy transfer to the fluorescein moiety and emission of green light. […] Excitation of the coumarin in the presence of Beta-lactamase activity results in a blue fluorescence signal. […]
An activator assay screen was run to obtain the EC80 concentration of the known activator to add in step 3. • 1. […] 4 μL of the EC80 concentration of activator, as determined in an Activator assay, was added to all wells containing compound and known inhibitor to bring the final assay volume to 40 μL. • 4. […] The assay plate was read on a fluorescence plate reader (Tecan Safire) and the data is analyzed. […]
STAT6-bla RA1 cells were thawed. […] The plate was read on a fluorescence plate reader.

What is called solubility is the dissolved amount per volume that the medium holds. Higher therefore signals much dissolved substance. In the case of `O=C(CN1CCOCC1)Nc1cccc(-c2nc(-c3c[nH]c(C(=O)N4CCCC4)c3)cs2)c1` [7A (sample 1), 2-morpholino-N-(3-(4-(5-(pyrrolidine-1-carbonyl)-1H-pyrrol-3-yl)thiazol-2-yl)phenyl)acetamide], the solubility at 1 h in the data set “physchem” (Solubility (μM) Mean) was 5.9 µM (≈ 2.75 µg/mL); in “physchem” (Solubility in PBS), less than 10 µM.
The matching figures for `Cl.O=C(CN1CCOCC1)Nc1cccc(-c2nc(-c3c[nH]c(C(=O)N4CCCC4)c3)cs2)c1` [9X (sample 2), 2-morpholino-N-(3-(4-(5-(pyrrolidine-1-carbonyl)-1H-pyrrol-3-yl)thiazol-2-yl)phenyl)acetamide hydrochloride salt]: 51.9 µM and 10 to 80 µM.
The IC50 is the concentration needed to halve the response being measured. For `O=C(c1cc(-c2csc(-c3ccccc3)n2)c[nH]1)N1CCCC1` [11A], the Ki at JAK3 was 1100 to 10000 nM. The IC50 in data set [1] fell in the range of 110 to 1000 nM.
For the molecule `CC(=O)N1CCN(c2ccc(OCC3COC(Cn4ccnc4)(c4ccc(Cl)cc4Cl)O3)cc2)CC1` (stereo not shown) [Ketoconazole, reference compound], the solubility at 1 h in the data set “physchem” (Solubility (μM) Mean) and in the data set “physchem” (Solubility in PBS) was 15.9 µM (≈ 8.45 µg/mL) in each case.
`CC(C)NCC(O)COc1cccc2ccccc12` (stereo not shown) [Propranolol, reference compound]: the solubility at 1 h in the data set “physchem” (Solubility (μM) Mean, kinetic solubility, 100 mM phosphate buffer (pH 7.4), test concentration 100 μM, n=2, LC-UV) was greater than 100 µM; in “physchem” (Solubility in PBS, 100 mM phosphate buffer pH 7.4, test concentration 100 μM), roughly 100 µM (≈ 25.9 µg/mL).
